Measured values as given in ChEMBL document CHEMBL4480380, “Identification and biological evaluation of novel benzothiazole derivatives bearing a pyridine-semicarbazone moiety as apoptosis inducers via activation of procaspase-3 to caspase-3” (Medchemcomm, 2019).
pIC50: −log10 of the molar value. Activity calls are given as the source filed them. The calls are words filed in the database; no cut-off is given here.

Experiments:
U-937 [1] = assay: Antiproliferative activity against human procaspase-3 over-expressing U937 cells after 24 hrs by CCK-8 assay; type: functional, cell-based; settings: U-937, 24 h
MCF7 = assay: Antiproliferative activity against human MCF7 cells after 24 hrs by CCK-8 assay; type: functional, cell-based; settings: MCF7, 24 h
[2] = Selectivity ratio of IC50 for human MCF7 cells to IC50 for human procaspase-3 over-expressing U937 cells; type: functional
U-937 [3] = assay: Induction of apoptosis in human U937 cells assessed as caspase-3 activity at 30 uM using Ac-DEVD-AFC as substrate preincubated for 16 hrs followed by substrate addition and measured after 60 mins by fluorescence assay (reference value: 7+/- 1%); type: functional
U-937 [4] = assay: Induction of apoptosis in human U937 cells assessed as early apoptotic cells at 2.6 uM after 24 hrs by Annexin V-FITC/propidium iodide staining-based flow cytometric analysis (reference value: 4.88%); type: functional
U-937 [5] = assay: Induction of apoptosis in human U937 cells assessed as late apoptotic cells at 2.6 uM after 24 hrs by Annexin V-FITC/propidium iodide staining-based flow cytometric analysis (reference value: 3.27%); type: functional
U-937 [6] = assay: Induction of apoptosis in human U937 cells assessed as early apoptotic cells at 5.2 uM after 24 hrs by Annexin V-FITC/propidium iodide staining-based flow cytometric analysis (reference value: 4.88%); type: functional
U-937 [7] = assay: Induction of apoptosis in human U937 cells assessed as late apoptotic cells at 5.2 uM after 24 hrs by Annexin V-FITC/propidium iodide staining-based flow cytometric analysis (reference value: 3.27%); type: functional
U-937 [8] = assay: Induction of apoptosis in human U937 cells assessed as early apoptotic cells at 2.6 uM after 48 hrs by Annexin V-FITC/propidium iodide staining-based flow cytometric analysis (reference value: 6.16%); type: functional
U-937 [9] = assay: Induction of apoptosis in human U937 cells assessed as late apoptotic cells at 2.6 uM after 48 hrs by Annexin V-FITC/propidium iodide staining-based flow cytometric analysis (reference value: 3.89%); type: functional
U-937 [10] = assay: Induction of apoptosis in human U937 cells assessed as early apoptotic cells at 5.2 uM after 48 hrs by Annexin V-FITC/propidium iodide staining-based flow cytometric analysis (reference value: 6.16%); type: functional
U-937 [11] = assay: Induction of apoptosis in human U937 cells assessed as late apoptotic cells at 5.2 uM after 48 hrs by Annexin V-FITC/propidium iodide staining-based flow cytometric analysis (reference value: 3.89%); type: functional
Caspase-3 (Homo sapiens) = molecular target: T1, Caspase-3 (Homo sapiens) (UniProt P42574); assay: Activation of procaspase-3 (unknown origin) at 10 uM using Ac-DEVD-AFC as substrate preincubated for 4 hrs followed by substrate addition and measured after 5 mins by fluorescence assay relative to control
T1 sequence (whole entry): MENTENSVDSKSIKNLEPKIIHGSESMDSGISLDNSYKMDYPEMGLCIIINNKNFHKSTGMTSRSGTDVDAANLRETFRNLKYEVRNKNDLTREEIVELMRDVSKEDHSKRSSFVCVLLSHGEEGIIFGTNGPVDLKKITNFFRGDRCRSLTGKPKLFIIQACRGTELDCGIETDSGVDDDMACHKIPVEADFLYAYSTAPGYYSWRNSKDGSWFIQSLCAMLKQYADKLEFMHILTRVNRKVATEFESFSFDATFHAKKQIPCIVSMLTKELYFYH

[12] = Toxicity in zebrafish AB embryos at 5 to 20 uM measured at 24 to 72 hrs post fertilization by stereo microscopic analysis; design: species or system Danio rerio; settings: in vivo
[13] = Toxicity in zebrafish AB embryos assessed as induction of mortality at 40 uM after 72 hrs post fertilization by stereo microscopic analysis; design: species or system Danio rerio; settings: in vivo
Danio rerio [14] = organism: Danio rerio; assay: Induction of apoptosis in zebrafish AB embryos assessed as accumulation of dying cells in head at 40 to 60 uM after 24 hrs post fertilization by acridine orange staining-based fluorescence microscopic analysis; type: functional, organism-based
Danio rerio [15] = organism: Danio rerio; assay: Induction of apoptosis in zebrafish AB embryos assessed as accumulation of dying cells in cranial neural crest at 40 to 60 uM after 24 hrs post fertilization by acridine orange staining-based fluorescence microscopic analysis; type: functional, organism-based
Danio rerio [16] = organism: Danio rerio; assay: Induction of apoptosis in zebrafish AB embryos assessed as increase in bax mRNA expression at 40 to 60 uM after 24 hrs post fertilization by RT-PCR analysis; type: functional, organism-based
[17] = Half life in human liver microsomes in presence of NADPH by LC-MS analysis; type: ADME, Microsome
[18] = Half life in rat liver microsomes in presence of NADPH by LC-MS analysis; type: ADME, Microsome
[19] = Half life in mouse liver microsomes in presence of NADPH by LC-MS analysis; type: ADME, Microsome
[20] = Intrinsic clearance in human liver microsomes in presence of NADPH by LC-MS analysis; type: ADME, Microsome; settings: read-out: CLH
[21] = Intrinsic clearance in rat liver microsomes in presence of NADPH by LC-MS analysis; type: ADME, Microsome; settings: read-out: CLH
[22] = Intrinsic clearance in mouse liver microsomes in presence of NADPH by LC-MS analysis; type: ADME, Microsome; settings: read-out: CLH

Structure (SMILES) | pIC50 (U-937 [1]) | pIC50 (MCF7) | Ratio IC50 [2] | Activity (U-937 [3]) | other results
C=CCc1cccc(/C=N/NC(=O)CN2CCN(Cc3ccccc3)CC2)c1O [PAC-1] | 5.22 | < 4.40 | 6.6 | 100% | –
CC1CCN(Cc2ccc3nc(NC(=O)N/N=C/c4ccccn4)sc3c2)CC1 | 4.67 | < 4.40 | 1.6 | – | –
CN(C)Cc1ccc2nc(NC(=O)N/N=C/c3ccccn3)sc2c1 | 4.63 | < 4.40 | 1.6 | – | –
C/C(=N\NC(=O)Nc1nc2ccc(CN(C)C)cc2s1)c1ccccn1 | 4.70 | < 4.40 | 2 | 68% | –
C/C(=N\NC(=O)Nc1ccc(CN2CCC(C)CC2)cc1)c1cnccn1 | < 4.40 | < 4.40 | – | – | –
CC1CCN(Cc2ccc(NC(=O)N/N=C/c3ccccn3)cc2)CC1 | < 4.40 | < 4.40 | – | – | –
CN(C)Cc1ccc(NC(=O)NN=C(c2ccccn2)c2ccccn2)cc1 | < 4.40 | < 4.40 | – | – | –
CCN(CC)Cc1ccc2nc(NC(=O)N/N=C/c3ccccn3)sc2c1 | 4.61 | < 4.40 | 1.6 | – | –
C/C(=N\NC(=O)Nc1nc2ccc(CN3CCC(C)CC3)cc2s1)c1ccccn1 | 5.28 | 4.91 | 2.3 | 99% | Activity (U-937 [4]): 16.16%; Activity (U-937 [5]): 6.3%; Activity (U-937 [6]): 19.79%; Activity (U-937 [7]): 8.15%; Activity (U-937 [8]): 19.59%; Activity (U-937 [9]): 9.17%; Activity (U-937 [10]): 28.06%; Activity (U-937 [11]): 18.7%; Activity (Caspase-3 (Homo sapiens)): 77.8%; Activity [12]: Non-Toxic; Activity [13]: Toxic; Activity (Danio rerio [14]): Active; Activity (Danio rerio [15]): Active; Activity (Danio rerio [16]): Active; half-life [17]: 77.9 min; half-life [18]: 95.5 min; half-life [19]: 53.6 min; CLint scaled [20]: 22.3 mL/min/kg; CLint scaled [21]: 26 mL/min/kg; CLint scaled [22]: 102 mL/min/kg
CCN(CC)Cc1ccc(NC(=O)N/N=C(\C)c2ccccn2)cc1 | < 4.40 | < 4.40 | – | – | –
CCN(CC)Cc1ccc(NC(=O)NN=C(c2ccccc2)c2ccccc2)cc1 | < 4.60 | 4.88 | <1 | 20% | –
CN(C)Cc1ccc(NC(=O)NN=C(c2ccccc2)c2ccccc2)cc1 | < 4.60 | 4.92 | <1 | 28% | –
CCN(CC)Cc1ccc(NC(=O)NN=C(c2ccccn2)c2ccccn2)cc1 | < 4.40 | < 4.40 | – | – | –
C/C(=N\NC(=O)Nc1nc2ccc(CN3CCC(C)CC3)cc2s1)c1ccccc1 | < 4.40 | < 4.40 | – | – | –
CN(C)Cc1ccc2nc(NC(=O)NN=C(c3ccccn3)c3ccccn3)sc2c1 | 5.11 | < 4.40 | 5.1 | 104% | –
C/C(=N\NC(=O)Nc1nc2ccc(CN3CCC(C)CC3)cc2s1)c1cnccn1 | < 4.40 | 4.93 | <1 | – | –
CCN(CC)Cc1ccc2nc(NC(=O)NN=C(c3ccccn3)c3ccccn3)sc2c1 | 5.04 | < 4.40 | 4.3 | 119% | –
C/C(=N\NC(=O)Nc1nc2ccc(CN(C)C)cc2s1)c1cnccn1 | < 4.40 | < 4.40 | – | – | –
CCN(CC)Cc1ccc2nc(NC(=O)N/N=C(\C)c3ccccn3)sc2c1 | 4.81 | < 4.40 | 2.6 | – | –
C/C(=N\NC(=O)Nc1ccc(CN2CCC(C)CC2)cc1)c1ccccn1 | < 4.40 | < 4.40 | – | – | –
CN(C)Cc1ccc(NC(=O)N/N=C/c2ccccn2)cc1 | < 4.40 | < 4.40 | – | – | –
CC1CCN(Cc2ccc(NC(=O)NN=C(c3ccccc3)c3ccccc3)cc2)CC1 | < 4.60 | 4.88 | <1 | 58% | –
O=C(c1ccc(F)cc1)C1CCN(CCn2c(=O)[nH]c3ccccc3c2=O)CC1 [KETANSERIN] | – | – | – | – | half-life [17]: 36.1 min; half-life [18]: 14.4 min; half-life [19]: 20.5 min; CLint scaled [20]: 48.2 mL/min/kg; CLint scaled [21]: 173 mL/min/kg; CLint scaled [22]: 267 mL/min/kg
CCN(CC)Cc1ccc2nc(NC(=O)N/N=C(\C)c3ccc(F)cc3)sc2c1 | < 4.40 | 4.91 | <1 | 40% | –
CC1CCN(Cc2ccc(NC(=O)NN=C(c3ccccn3)c3ccccn3)cc2)CC1 | < 4.40 | < 4.40 | – | – | –
CCN(CC)Cc1ccc2nc(NC(=O)N/N=C(\C)c3cnccn3)sc2c1 | < 4.40 | < 4.40 | – | – | –
